ChEMBL document CHEMBL4261494, “Design, synthesis and biological evaluation of novel Schiff base-bridged tetrahydroprotoberberine triazoles as a new type of potential antimicrobial agents” (Medchemcomm, 2017)
Converted amounts (≈) assume the structure as drawn. The source made the active and inactive calls. The calls are words filed in the database; no cut-off is given here.

Legend:
Calf thymus DNA [1] = assay: Binding affinity to calf thymus DNA by UV absorption spectral analysis; assay type: nucleic-acid assay; details: Bos taurus
DNA [2] = assay: Induction of Escherichia coli supercoiled pUC19 DNA cleavage at 0.0125 mM after 16 hrs in absence of Zn2+ by ethidium bromide staining-based agarose gel electrophoresis method; assay type: nucleic-acid assay
Proteus vulgaris = assay type: functional; details: ATCC 13315, 24 h
Cyberlindnera jadinii = assay type: functional; details: Williopsis jadinii, ATCC 9950, 24 h
Micrococcus luteus = assay type: functional; details: ATCC 4698, 24 h
Calf thymus DNA [3] = assay: Inhibition of neutral red binding to calf thymus DNA up to 2 x 10^-5 mol/L by UV absorption spectral analysis; assay type: nucleic-acid assay; details: Bos taurus
Albumin [4] = target: T1, Albumin (Homo sapiens, UniProt P02768); assay: Binding affinity to HSA assessed as quenching constant at 310 K by UV-vis absorption spectral analysis; assay type: ADME; details: isolated protein
Kregervanrija fluxuum = assay type: functional; details: ATCC 9888, 24 h
Staphylococcus aureus [5] = assay: Potency index, ratio of chloromycin MIC to test compound MIC for methicillin-resistant Staphylococcus aureus N315; assay type: functional
Calf thymus DNA [6] = assay: Binding affinity to calf thymus DNA assessed as increase in hypochromic effect up to 2 x 10^-5 mol/L by UV absorption spectral analysis; assay type: nucleic-acid assay; details: Bos taurus
Salmonella typhi = assay: microbe, parasite or virus in culture; details: Salmonella enterica, 24 h
Saccharomyces cerevisiae = assay type: functional; details: 24 h
[7] = Aqueous solubility of the compound in pH 7.4 phosphate buffer at 1 mg after 3 hrs by UV absorption analysis; assay type: physicochemical
Aspergillus flavus = assay type: functional; details: ATCC 204304, 24 h
Bacillus spizizenii = assay type: functional; details: ATCC 6633, 24 h
DNA [8] = assay: Induction of Escherichia coli supercoiled pUC19 DNA cleavage at 0.0125 mM after 16 hrs in presence of Zn2+ by ethidium bromide staining-based agarose gel electrophoresis method; assay type: nucleic-acid assay
Escherichia coli [9] = assay type: functional; details: DH52, 24 h
Staphylococcus aureus [10] = assay: Bactericidal activity against methicillin-resistant Staphylococcus aureus N315 assessed as log reduction in viable bacterial count at 4 times MIC incubated up to 1 hr followed by replating on yeast-dextrose agar plates and measured after 24 hrs by time kill assay; assay type: functional
Staphylococcus aureus [11] = assay: Antibacterial activity against methicillin-resistant Staphylococcus aureus N315 after 14 passages; assay type: functional, organism-based
Candida albicans = assay type: functional; details: ATCC 10231, 24 h
Albumin [12] = target: T1, Albumin; assay: Binding affinity to HSA assessed as quenching constant at 298 K by UV-vis absorption spectral analysis; assay type: ADME; details: isolated protein
Pseudomonas aeruginosa = assay type: functional; details: ATCC 27853, 24 h
Escherichia coli [13] = assay type: functional; details: JM109, 24 h
Shigella dysenteriae = assay type: functional; details: 24 h
Staphylococcus aureus [14] = assay type: functional; details: N315, 24 h
Albumin [15] = target: T1, Albumin; assay: Binding affinity to HSA assessed as quenching constant at 288 K by UV-vis absorption spectral analysis; assay type: ADME; details: isolated protein
Staphylococcus aureus [16] = assay: Potency index, ratio of norfloxacin MIC to test compound MIC for methicillin-resistant Staphylococcus aureus N315; assay type: functional
Staphylococcus aureus [17] = assay type: functional; details: ATCC 25923, 24 h

T1 sequence (P02768 whole entry): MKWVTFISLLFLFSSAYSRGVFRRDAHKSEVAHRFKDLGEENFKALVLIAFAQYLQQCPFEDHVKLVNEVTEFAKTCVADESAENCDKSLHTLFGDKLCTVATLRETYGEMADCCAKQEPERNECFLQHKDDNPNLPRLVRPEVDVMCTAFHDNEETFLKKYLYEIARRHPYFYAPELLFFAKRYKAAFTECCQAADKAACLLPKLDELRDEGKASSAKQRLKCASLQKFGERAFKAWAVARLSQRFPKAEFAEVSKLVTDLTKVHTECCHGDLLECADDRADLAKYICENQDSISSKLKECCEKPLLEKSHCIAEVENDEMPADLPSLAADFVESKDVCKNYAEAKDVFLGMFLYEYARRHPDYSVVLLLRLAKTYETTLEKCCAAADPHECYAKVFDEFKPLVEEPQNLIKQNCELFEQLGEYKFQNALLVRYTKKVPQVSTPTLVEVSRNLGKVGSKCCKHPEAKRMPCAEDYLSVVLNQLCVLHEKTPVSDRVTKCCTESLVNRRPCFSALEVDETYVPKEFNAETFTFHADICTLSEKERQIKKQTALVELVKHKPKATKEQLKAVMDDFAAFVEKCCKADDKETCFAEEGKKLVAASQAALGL

COc1cc(/C=N/n2cnnc2)c2c(c1OCc1ccccc1)CN1CCc3cc4c(cc3C1C2)OCO4 (stereo not drawn)
K (Calf thymus DNA [1]): 2.27 ×10⁴ L/mol
Activity (DNA [2]): inactive
MIC (Proteus vulgaris): 16 µg/mL (≈ 31.4 µM)
MIC (Cyberlindnera jadinii): 0.5 to 32 µg/mL (≈ 0.981 to 62.8 µM)
MIC (Micrococcus luteus): 1 µg/mL (≈ 1.96 µM)
inhibition (Calf thymus DNA [3]): Active
Kq (Albumin [4]): 1.7 ×10¹³ L/mol/s
MIC (Kregervanrija fluxuum): 0.5 to 32 µg/mL (≈ 0.981 to 62.8 µM)
Ratio (Staphylococcus aureus [5]): 8
Activity (Calf thymus DNA [6]): Active
MIC (Salmonella typhi): 4 µg/mL (≈ 7.85 µM)
MIC (Saccharomyces cerevisiae): 0.5 µg/mL (≈ 0.981 µM)
solubility at 3 h [7]: 178 µg/mL (≈ 349 µM)
MIC (Aspergillus flavus): 0.5 to 32 µg/mL (≈ 0.981 to 62.8 µM)
MIC (Bacillus spizizenii): 32 µg/mL (≈ 62.8 µM)
Activity (DNA [8]): Active
MIC (Escherichia coli [9]): 16 µg/mL (≈ 31.4 µM)
FC (Staphylococcus aureus [10]): >3
Activity (Staphylococcus aureus [11]): Active
MIC (Candida albicans): 0.5 to 32 µg/mL (≈ 0.981 to 62.8 µM)
Kq (Albumin [12]): 2.05 ×10¹³ L/mol/s
MIC (Pseudomonas aeruginosa): 8 µg/mL (≈ 15.7 µM)
MIC (Escherichia coli [13]): 32 µg/mL (≈ 62.8 µM)
MIC (Shigella dysenteriae): 32 µg/mL (≈ 62.8 µM)
MIC (Staphylococcus aureus [14]): 2 µg/mL (≈ 3.92 µM)
Kq (Albumin [15]): 2.55 ×10¹³ L/mol/s
Ratio (Staphylococcus aureus [16]): 4
MIC (Staphylococcus aureus [17]): 8 µg/mL (≈ 15.7 µM)
